# Test results from patent US20230212225A1, “PEPTIDE COMPOSTIONS AND METHODS FOR TREATING TAUOPATHIES” (AXOLTIS PHARMA, priority 2019, published 2023).
# Where a SMILES comes first, the peptide text is derived from it.
# Columns and labels:
# [1] = test system: Aβ25-35-induced short-term memory deficits; assay: Spontaneous alternation performance (Y-maze), treatment started 1 hour after Aβ25-35 injection, tested D08; type: in vivo, mice; conditions: for Y-maze % (Sc.Aβ / Vhc = 100) / Y-maze Mean, percentage of alternation: D08
# [2] = test system: Aβ1-42 (amyloid-beta 1-42); assay: Brain biomarker assessment, hippocampus ELISA, D11; type: in vivo, mice
# Experimental: (§1) In order to evaluate potential biological effects of NX210 or NX218 treatments on pathological biomarkers, mice from the Sc.Aβ / Vhc (n=6), Aβ25-35 / Vhc (n=6), Aβ25-35 / NX210 IP 2 mg/kg (n=5) and Aβ25-35 / NX218 IP 2 mg/kg (n=5) groups were sacrificed under anesthesia ten days after ICV injection of Aβ25-35 peptide (D11) and daily compound administrations (once a day).
# (§2) For each mouse, the brain was quickly removed and dissected out on an ice-cold metal plate into 2 hemi-hippocampi, 2 hemi-frontal cortices and the rest of brain. Straight after each collection, brain samples were frozen on dry ice and stored at -80° C. After thawing, brain structures were dissociated in 50 mM Tris-150 mM NaCl buffer, pH 7.5, and sonicated for 20 sec. After centrifugation, supernatants containing proteins were used for ELISA assays according to the manufacturer’s instructions (see below). • For Aβ1-42 (amyloid-beta 1-42), use of the left hippocampus, ELISA kit from Cloud-Clone Corp., ref: CEA946Mu; batch: L190107385 • For pTau (phosphorylated Tau protein), use of the left hippocampus, ELISA kit from Fisher Scientific, ref: 10591255; batch: 187860001
# (§3) For all assays, the absorbance was read at 450 nm and each sample concentration was calculated by using a specific standard curve. All samples were run in duplicate and the average of these duplicates was used for calculations.
# [3] = test system: pTau (phosphorylated Tau protein); assay: Brain biomarker assessment, hippocampus ELISA, D11; type: in vivo, mice
# Experimental: as §1, §2, §3
# [4] = Preliminary in vitro conversion of NX210 in rat plasma; type: in vitro ADME
# [5] = IP 2 mg/kg every other day (1/2d)
# [6] = IP 3.75 mg/kg every other day (1/2d)
# [7] = 2 mg/kg once a day for ten days
# [8] = IP 2 mg/kg once a day, left hippocampus, D11
compound,measurement,setting,value
"N=C(N)NCCC[C@H](NC(=O)[C@H](CO)NC(=O)[C@H](CS)NC(=O)[C@H](CO)NC(=O)[C@H](CO)NC(=O)[C@H](Cc1c[nH]c2ccccc12)NC(=O)CNC(=O)[C@H](CO)NC(=O)[C@@H](N)Cc1c[nH]c2ccccc12)C(=O)N[C@@H](CO)C(=O)N[C@@H](CS)C(=O)NCC(=O)O [NX210, W-S-G-W-S-S-C-S-R-S-C-G] (H-WSGWSSCSRSCG-OH; N-terminus and C-terminus assumed)","effect on spatial short-term working memory deficits (Y-maze), in words","[1]; 1, 2 and 3.75 mg/kg IP, once a day or every other day",significantly rescued
same,Y-maze % (Sc.Aβ / Vhc = 100),[1]; IP 0.1 mg/kg once a day,60%
same,"Y-maze Mean, percentage of alternation",[1]; IP 0.1 mg/kg once a day,44.52%
same,Y-maze % (Sc.Aβ / Vhc = 100),[1]; IP 1 mg/kg once a day,79%
same,"Y-maze Mean, percentage of alternation",[1]; IP 1 mg/kg once a day,58.16%
same,Y-maze % (Sc.Aβ / Vhc = 100),[1]; [5],100%
same,"Y-maze Mean, percentage of alternation",[1]; [5],74.35%
same,Y-maze % (Sc.Aβ / Vhc = 100),[1]; IP 2 mg/kg once a day,98%
same,"Y-maze Mean, percentage of alternation",[1]; IP 2 mg/kg once a day,72.67%
same,Y-maze % (Sc.Aβ / Vhc = 100),[1]; [6],98%
same,"Y-maze Mean, percentage of alternation",[1]; [6],72.62%
same,Y-maze % (Sc.Aβ / Vhc = 100),[1]; IP 3.75 mg/kg once a day,96%
same,"Y-maze Mean, percentage of alternation",[1]; IP 3.75 mg/kg once a day,70.90%
same,"restoration of short-term memory to Sham level (Y-maze), in words","[1]; NX210 at 2 and 3.75 mg/kg, NX218 at 1, 2 and 3.75 mg/kg",complete restoration
same,"effect on Aβ25-35-induced short-term memory deficits (Y-maze) at subactive dose, in words","[1]; once a day, NX210 0.1 mg/kg, NX218 0.1 mg/kg, DPZ 0.25 mg/kg",do not impede
same,"effect on brain Aβ1-42 vs Aβ25-35 / Vhc group, in words",[2]; [7],significantly decreased
same,"Aβ1-42 %, percentage of the control group (Sc.Aβ / Vhc)",[2]; [8],107%
same,Aβ1-42 Mean,[2]; [8],24.25
same,"effect on brain pTau vs Aβ25-35 / Vhc group, in words",[3]; [7],significantly decreased
same,"pTau %, percentage of the control group (Sc.Aβ / Vhc)",[3]; [8],151%
same,pTau Mean,[3]; [8],90.21
same,"conversion by oxidation in rat plasma, in words",[4],rapidly converted into NX218
